Results on 2 compounds are retold here after patent publication US20110229437A1, “Method of Treating Asthma with Antiviral Agents” (priority 2009, published 2011).

Each structure is given as a SMILES string.

A short description of data set [1]: Case report: asthma symptoms of an adult with history of asthma after a 5 day course of Tamiflu. The conditions noted are these: one patient. The source says: They had been using Advair® two inhalations a day or Symbicort® four puffs a day. Advair® is a combination formulation containing fluticasone propionate (a corticosteroid) and salmeterol xinafoate (a long-acting β2-adrenergic receptor agonist). Symbicort® contains two active ingredients which are delivered via a single inhaler: budesonide, a corticosteroid, and formoterol, a long-acting β2-agonist.
Singulair® contains montelukast, a leukotriene receptor antagonist (LTRA) used for the maintenance treatment of asthma and to relieve symptoms of seasonal allergies.

The nature of data set [2]: Case report: flu like symptoms of the same adult under Tamiflu. In kind it is in vivo, human. Particulars: Tamiflu 75 mg by mouth twice a day.

Turning to `CC(C)(O)c1ccccc1CC[C@@H](SCC1(CC(=O)O)CC1)c1cccc(/C=C/c2ccc3ccc(Cl)cc3n2)c1` [Singulair, montelukast], the “side effects in the patient” value in data set [1] (used for years) is on record as “no side effects”.
For `CCOC(=O)C1=C[C@@H](OC(CC)CC)[C@H](NC(C)=O)[C@@H](N)C1` [Tamiflu, Oseltamivir phosphate], in data set [2] (one patient), the “time until fatigue resolved” value is given as no more than 1.5 days; the “time until feeling better and myalgias relieved” value is no more than 12 h. In addition, the “fever after start of treatment” value in data set [2] (dropped from 39 C.° within 1.5 days) was 38 C.°. For the same compound, in data set [1] (during/after Tamiflu 75 mg by mouth twice a day for 5 days), the asthma symptoms entry is listed as “diminished”. Moreover, the “level of asthmatic relief compared with prednisone 60 mg per day, reported by the patient” value in data set [1] (five weeks after using Tamiflu) is given as “similar”.
